Reference: patent publication US8889878B2, “Haloalky-substituted amides as insecticides and acaricides” (Bayer CropScience AG, priority 2009, dated 2014)

How the values were obtained:
[1] = logP by HPLC on reverse-phase column (EEC Directive 79/831 Annex V.A8); type: physicochemical
Experimental: The logP values reported in the above Tables and Preparation Examples were determined according to EEC Directive 79/831 Annex V.A8 by HPLC (High Performance Liquid Chromatography) on a reverse-phase column (C18). Temperature 43° C.

Boophilus microplus = Boophilus microplus test (BOOPMI injection), Example 11; type: in vivo; conditions: application rate 20 μg/animal, injected into abdomen, after 7 days
Experimental: Boophilus microplus Test (BOOPMI Injection) • Solvent: dimethyl sulphoxide To prepare an appropriate active ingredient formulation, 10 mg of active ingredient are mixed with 0.5 ml of solvent and the concentrate is diluted with solvent to the desired concentration. The active ingredient solution is injected into the abdomen (Boophilus microplus), and the animals are transferred to dishes and stored in a climate-controlled room. The efficacy was assessed by the number of fertile eggs laid. After 7 days, the efficacy in % is determined. 100% means that none of the ticks has laid any fertile eggs.

[2] = system: armyworm (Spodoptera frugiperda); experiment: Spodoptera frugiperda test (SPODFR spray treatment), Example 15; type: in vivo; conditions: maize leaf discs sprayed, after 7 days
Experimental: Spodoptera frugiperda Test (SPODFR Spray Treatment)
• Solvent: 78.0 parts by weight of acetone • 1.5 parts by weight of dimethylformamide • Emulsifier: 0.5 part by weight of alkylaryl polyglycol ether
To prepare an appropriate active ingredient formulation, 1 part by weight of active ingredient is mixed with the stated amounts of solvent and emulsifier, and the concentrate is diluted with emulsifier-containing water to the desired concentration. Leaf discs from maize (Zea mays) are sprayed with an active ingredient formulation of the desired concentration and, after drying, populated with caterpillars of the armyworm (Spodoptera frugiperda).
After 7 days, the efficacy in % is determined. 100% means that all caterpillars were killed; 0% means that no caterpillars were killed.

[3] = HPLC-MS, HPLC on reverse-phase column
[4] = HPLC, C18 reverse phase, 43° C., acidic range pH 2.7, calibration with alkan-2-ones

O=C(/C=C/c1ccc(C(=O)NCc2nccs2)c(Cl)c1)NC(c1cccc(C(F)(F)F)c1)C(F)(F)F (stereo not drawn) [Ia-159]
logP ([1]; HPLC-MS): HPLC-MS: logP = 3.13; mass
efficacy in % (fertile eggs laid) (Boophilus microplus): 100%

CCOC1(NC(=O)c2ccc(/C=C/C(=O)NC(c3cccc(C(F)(F)F)c3)C(F)(F)F)cc2Br)CC1 (stereo not drawn) [Ia-237]
logP ([1]; HPLC-MS): HPLC-MS: logP = 3.42; mass
efficacy in % (fertile eggs laid) (Boophilus microplus): 100%

O=C(/C=C/c1ccc(-n2cccn2)c(C(F)(F)F)c1)NC(c1cccc(C(F)(F)F)c1)C(F)(F)F (stereo not drawn) [Ia-135]
logP ([1]; HPLC-MS): HPLC-MS: logP = 3.95; mass
efficacy in % (fertile eggs laid) (Boophilus microplus): 100%

N#CCNC(=O)c1ccc(/C=C/C(=O)NC(c2cccc(C(F)(F)F)c2)C(F)(F)F)cc1C(F)(F)F (stereo not drawn) [Ia-129]
logP ([1]; HPLC-MS): HPLC-MS: logP = 3.19; mass
efficacy in % (fertile eggs laid) (Boophilus microplus): 100%
efficacy in % ([2]; application rate 100 g/ha): 100%

O=C(/C=C/c1ccc(CNC(=O)C2CCC2)c(C(F)(F)F)c1)NC(c1cccc(C(F)(F)F)c1)C(F)(F)F (stereo not drawn) [Ia-267]
logP [1, 3]: HPLC-MS: logP = 3.9; mass
efficacy in % ([2]; application rate 100 g/ha): 100%

O=C(/C=C/c1ccc(CNc2cc(Cl)ccn2)c(C(F)(F)F)c1)NC(c1cccc(C(F)(F)F)c1)C(F)(F)F (stereo not drawn) [Ia-264]
logP [1, 3]: HPLC-MS: logP = 4.28; mass
efficacy in % ([2]; application rate 100 g/ha): 100%

O=C(/C=C/c1ccc(C(=O)Nc2ccc([N+](=O)[O-])cn2)c(Cl)c1)NC(c1cccc(C(F)(F)F)c1)C(F)(F)F (racemic) [Ia-204]
logP ([1]; HPLC-MS): HPLC-MS: logP = 3.95; mass
efficacy in % ([2]; application rate 100 g/ha): 100%

CCC(=O)NC(C)c1ccc(/C=C/C(=O)NC(c2cccc(C(F)(F)F)c2)C(F)(F)F)cc1F (stereo not drawn) [Ia-273]
logP [1, 3]: HPLC-MS: logP = 3.3; mass
efficacy in % ([2]; application rate 100 g/ha): 100%

CC(NC(=O)c1ccc(/C=C/C(=O)NC(c2cccc(C(F)(F)F)c2)C(F)(F)F)cc1Br)C(F)(F)F (stereo not drawn) [Ia-176]
logP ([1]; HPLC-MS): HPLC-MS: logP = 3.78; mass
efficacy in % ([2]; application rate 100 g/ha): 100%

O=C(/C=C/c1ccc(C(=O)Nc2ccncn2)c(C(F)(F)F)c1)NC(c1cccc(C(F)(F)F)c1)C(F)(F)F (stereo not drawn) [Ia-125]
logP ([1]; HPLC-MS): HPLC-MS: logP = 3.35; mass
efficacy in % (fertile eggs laid) (Boophilus microplus): 100%
efficacy in % ([2]; application rate 100 g/ha): 100%

O=C(/C=C/c1ccc(C(=O)NC2CC2)c(C(F)(F)F)c1)NC(c1cccc(Br)c1)C(F)(F)F (stereo not drawn) [Ia-284]
logP [1, 3]: HPLC-MS: logP = 3.35; mass
efficacy in % ([2]; application rate 100 g/ha): 100%

Cc1ccnc(NC(=O)c2ccc(/C=C/C(=O)NC(c3cccc(C(F)(F)F)c3)C(F)(F)F)cc2C(F)(F)F)c1 (stereo not drawn) [Ia-259]
logP ([1]; HPLC-MS): HPLC-MS: logP = 3.61; mass
efficacy in % ([2]; application rate 100 g/ha): 100%

N#Cc1ccc2[nH]c(C(=O)NC(c3cccc(C(F)(F)F)c3)C(F)(F)F)cc2c1 (stereo not drawn) [Ic-4]
logP [1, 4]: HPLC-MS: logP = 3.48; mass
efficacy in % ([2]; application rate 500 g/ha): 83%

NC(=O)c1ccc(/C=C/C(=O)NC(c2cccc(C(F)(F)F)c2)C(F)(F)F)cc1Cl (stereo not drawn) [Ia-157]
logP ([1]; HPLC-MS): HPLC-MS: logP = 2.75; mass
efficacy in % (fertile eggs laid) (Boophilus microplus): 100%

O=C(/C=C/c1ccc(C(=O)Nc2cc(Cl)ccn2)c(Cl)c1)NC(c1cccc(C(F)(F)F)c1)C(F)(F)F (stereo not drawn) [Ia-165]
logP ([1]; HPLC-MS): HPLC-MS: logP = 4,23; mass
efficacy in % ([2]; application rate 100 g/ha): 100%

CC(C#N)(NC(=O)c1ccc(/C=C/C(=O)NC(c2cccc(C(F)(F)F)c2)C(F)(F)F)cc1C(F)(F)F)C1CC1 (stereo not drawn) [Ia-172]
logP ([1]; HPLC-MS): HPLC-MS: logP = 3.74; mass
efficacy in % ([2]; application rate 100 g/ha): 100%

O=C(/C=C/c1ccc(C(=O)Nc2ccc(F)cn2)c(Cl)c1)NC(c1cccc(C(F)(F)F)c1)C(F)(F)F (racemic) [Ia-203]
logP ([1]; HPLC-MS): HPLC-MS: logP = 3.84; mass
efficacy in % ([2]; application rate 100 g/ha): 100%

O=C(/C=C/c1ccc(C(=O)NCC=CCl)c(C(F)(F)F)c1)NC(c1cccc(C(F)(F)F)c1)C(F)(F)F (stereo not drawn) [Ia-145]
logP ([1]; HPLC-MS): HPLC-MS: logP = 3.69; mass
efficacy in % (fertile eggs laid) (Boophilus microplus): 100%

N#Cc1ccc(NC(=O)c2ccc(/C=C/C(=O)NC(c3cccc(C(F)(F)F)c3)C(F)(F)F)cc2C(F)(F)F)nc1 (racemic) [Ia-211]
logP ([1]; HPLC-MS): HPLC-MS: logP = 3.82; mass
efficacy in % ([2]; application rate 100 g/ha): 100%

O=C(/C=C/c1ccc(C(=O)NCc2cc(Cl)ccn2)c(C(F)(F)F)c1)NC(c1cccc(C(F)(F)F)c1)C(F)(F)F (stereo not drawn) [Ia-126]
logP ([1]; HPLC-MS): HPLC-MS: logP = 3.68; mass
efficacy in % (fertile eggs laid) (Boophilus microplus): 100%

CC(C)C(=O)N(Cc1ccccn1)Cc1ccc(/C=C/C(=O)NC(c2cccc(C(F)(F)F)c2)C(F)(F)F)cc1F (stereo not drawn) [Ia-253]
logP ([1]; HPLC-MS): HPLC-MS: logP = 3.37; mass
efficacy in % ([2]; application rate 100 g/ha): 100%

O=C(/C=C/c1ccc(C(=O)Nc2ncccn2)c(C(F)(F)F)c1)NC(c1cccc(C(F)(F)F)c1)C(F)(F)F (stereo not drawn) [Ia-119]
logP ([1]; HPLC-MS): HPLC-MS: logP = 3.11; mass
efficacy in % ([2]; application rate 100 g/ha): 100%

N#Cc1cnn(-c2ccc(/C=C/C(=O)NC(c3cccc(C(F)(F)F)c3)C(F)(F)F)cc2Cl)c1 (racemic) [Ia-200]
logP ([1]; HPLC-MS): HPLC-MS: logP = 3.83; mass
efficacy in % ([2]; application rate 100 g/ha): 100%

O=C(/C=C/c1ccc(C(=O)Nc2ccc(F)cn2)c(C(F)(F)F)c1)NC(c1cccc(C(F)(F)F)c1)C(F)(F)F (racemic) [Ia-210]
logP ([1]; HPLC-MS): HPLC-MS: logP = 3.93; mass
efficacy in % ([2]; application rate 100 g/ha): 100%

O=C(/C=C/c1ccc(C(=O)NC2CC2)c(Cl)c1)NC(c1cccc(Cl)c1)C(F)(F)F (stereo not drawn) [Ia-235]
logP ([1]; HPLC-MS): HPLC-MS: logP = 3.03; mass
efficacy in % ([2]; application rate 500 g/ha): 83%

O=C(/C=C/c1ccc2c(c1)CCC2NC(=O)CC1CC1)NC(c1cccc(C(F)(F)F)c1)C(F)(F)F (stereo not drawn) [Ie-2]
logP [1, 4]: HPLC-MS: logP = 3.54; mass
efficacy in % ([2]; application rate 100 g/ha): 100%

CN(C(=O)c1ccc(/C=C/C(=O)NC(c2ccc(F)c(C(F)(F)F)c2)C(F)(F)F)cc1C(F)(F)F)c1ccccn1 (stereo not drawn) [Ia-281]
logP [1, 3]: HPLC-MS: logP = 3.63; mass
efficacy in % ([2]; application rate 100 g/ha): 100%

O=C(/C=C/c1ccc(-n2cnc(Cl)n2)c(C(F)(F)F)c1)NC(c1cccc(C(F)(F)F)c1)C(F)(F)F (racemic) [Ia-208]
logP ([1]; HPLC-MS): HPLC-MS: logP = 4.02; mass
efficacy in % ([2]; application rate 100 g/ha): 100%

CCC(=O)NC(C)c1ccc(/C=C/C(=O)NC(c2ccc(F)c(Cl)c2)C(F)(F)F)cc1F (stereo not drawn) [Ia-274]
logP [1, 3]: HPLC-MS: logP = 3.23; mass
efficacy in % ([2]; application rate 100 g/ha): 100%

O=C(/C=C/c1ccc(C(=O)Nc2ccccn2)c(C(F)(F)F)c1)NC(c1cncc(C(F)(F)F)c1)C(F)(F)F (stereo not drawn) [Ib-2]
logP [1, 4]: HPLC-MS: logP = 3.02 mass (m/z):
efficacy in % ([2]; application rate 500 g/ha): 83%

CCC(C)NC(=O)c1ccc(/C=C/C(=O)NC(c2cccc(C(F)(F)F)c2)C(F)(F)F)cc1C(F)(F)F (stereo not drawn) [Ia-144]
logP ([1]; HPLC-MS): HPLC-MS: logP = 3.84; mass
efficacy in % (fertile eggs laid) (Boophilus microplus): 100%

O=C(/C=C/c1ccc(C(=O)Nc2ccc(F)cn2)c(Br)c1)NC(c1cccc(C(F)(F)F)c1)C(F)(F)F (racemic) [Ia-212]
logP ([1]; HPLC-MS): HPLC-MS: logP = 3.87; mass
efficacy in % ([2]; application rate 100 g/ha): 100%

Cn1ccc(NC(=O)c2ccc(/C=C/C(=O)NC(c3cccc(C(F)(F)F)c3)C(F)(F)F)cc2C(F)(F)F)n1 (stereo not drawn) [Ia-124]
logP ([1]; HPLC-MS): HPLC-MS: logP = 3.28; mass
efficacy in % (fertile eggs laid) (Boophilus microplus): 100%
efficacy in % ([2]; application rate 100 g/ha): 100%

C#CC(C)NC(=O)c1ccc(/C=C/C(=O)NC(c2cccc(C(F)(F)F)c2)C(F)(F)F)cc1Br (stereo not drawn) [Ia-178]
logP ([1]; HPLC-MS): HPLC-MS: logP = 3.44; mass
efficacy in % ([2]; application rate 100 g/ha): 100%

O=C(/C=C/c1ccc(C(=O)Nc2cc(Cl)ccn2)c(C(F)(F)F)c1)NC(c1cccc(C(F)(F)F)c1)C(F)(F)F (stereo not drawn) [Ia-121]
logP ([1]; HPLC-MS): HPLC-MS: logP = 4.3; mass
efficacy in % (fertile eggs laid) (Boophilus microplus): 100%

O=C(/C=C/c1ccc(C(=O)Nc2cccnn2)c(C(F)(F)F)c1)NC(c1cccc(C(F)(F)F)c1)C(F)(F)F (stereo not drawn) [Ia-225]
logP ([1]; HPLC-MS): HPLC-MS: logP = 3.27; mass
efficacy in % ([2]; application rate 100 g/ha): 100%
